We go through 23 compounds from patent US7135466B2 (Kirin Beer Kabushiki Kaisha, priority 1999, dated 2006).

One assay has as its target T1, PDGF-Ra (Homo sapiens, UniProt P16234).
T1 construct: host or cells: G-292 human osteosarcoma cells
As to the kind of experiment: Inhibitory activity against PDGF-Ra phosphorylation by PDGF-AA stimulation using G292. Conditions: Pharmacological Test Example 1; > means inhibition at indicated concentration not more than 50%, < and << not less than 50%; read-out: PDGF (E) IC50. It is filed as cell-based. In outline: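 Cells seeded in low-serum medium are exposed to test compound for one hour, then PDGF-AA (50 ng/ml) triggers receptor phosphorylation for 5 min at 37 °C. Phospho-PDGF-Ra in solubilized cells is quantified by anti-phosphotyrosine capture ELISA at 450 nm.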

The target of a further assay is T2, c-kit (Homo sapiens, UniProt P10721).
T2 construct: MO7e (human megakaryocytic leukemia cell line) which had been arrested for 20 hr; endogenous in cells; host or cells: MO7e human megakaryocytic leukemia cell line
T2 sequence (P10721 26-976): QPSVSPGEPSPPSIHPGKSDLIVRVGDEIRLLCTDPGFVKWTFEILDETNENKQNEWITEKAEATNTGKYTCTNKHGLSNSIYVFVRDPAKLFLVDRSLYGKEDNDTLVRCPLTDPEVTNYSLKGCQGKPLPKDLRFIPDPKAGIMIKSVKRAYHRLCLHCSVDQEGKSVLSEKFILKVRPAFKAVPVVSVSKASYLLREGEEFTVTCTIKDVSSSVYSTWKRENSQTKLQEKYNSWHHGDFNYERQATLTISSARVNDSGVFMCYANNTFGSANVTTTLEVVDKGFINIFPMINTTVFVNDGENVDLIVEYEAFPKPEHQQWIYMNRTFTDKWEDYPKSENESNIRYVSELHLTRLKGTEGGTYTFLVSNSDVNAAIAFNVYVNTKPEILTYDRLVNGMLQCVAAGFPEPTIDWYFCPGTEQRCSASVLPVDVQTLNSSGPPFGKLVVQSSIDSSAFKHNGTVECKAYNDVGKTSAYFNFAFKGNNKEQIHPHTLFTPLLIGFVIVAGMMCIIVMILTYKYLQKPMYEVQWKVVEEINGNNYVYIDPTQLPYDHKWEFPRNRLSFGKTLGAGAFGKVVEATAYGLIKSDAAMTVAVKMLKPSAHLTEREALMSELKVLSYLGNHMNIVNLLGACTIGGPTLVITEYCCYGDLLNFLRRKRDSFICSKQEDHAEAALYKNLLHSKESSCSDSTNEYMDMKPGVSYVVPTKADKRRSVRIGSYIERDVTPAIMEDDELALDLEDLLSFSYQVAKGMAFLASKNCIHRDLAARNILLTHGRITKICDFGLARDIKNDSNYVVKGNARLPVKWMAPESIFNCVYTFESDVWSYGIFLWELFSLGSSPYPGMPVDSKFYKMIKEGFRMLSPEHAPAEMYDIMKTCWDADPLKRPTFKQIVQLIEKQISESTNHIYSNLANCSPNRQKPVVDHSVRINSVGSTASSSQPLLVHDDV
As to the kind of experiment: Inhibitory activity against c-kit autophosphorylation (MO7e cells, h-SCF). Format: cell-based. The following applies: MO7e cells, h-SCF 50 ng/ml; read-out: c-kit IC50. In outline:
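Phospho-c-kit ELISA: plate-bound PY-20 anti-phosphotyrosine captures lysate, anti-c-kit plus peroxidase-labelled secondary antibody detect, read at 450 nm. Lysates come from 20 hr-arrested MO7e cells given compound for 1 hr before a 5 min 50 ng/ml h-SCF stimulus.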

T1 sequence (P16234 24-1089): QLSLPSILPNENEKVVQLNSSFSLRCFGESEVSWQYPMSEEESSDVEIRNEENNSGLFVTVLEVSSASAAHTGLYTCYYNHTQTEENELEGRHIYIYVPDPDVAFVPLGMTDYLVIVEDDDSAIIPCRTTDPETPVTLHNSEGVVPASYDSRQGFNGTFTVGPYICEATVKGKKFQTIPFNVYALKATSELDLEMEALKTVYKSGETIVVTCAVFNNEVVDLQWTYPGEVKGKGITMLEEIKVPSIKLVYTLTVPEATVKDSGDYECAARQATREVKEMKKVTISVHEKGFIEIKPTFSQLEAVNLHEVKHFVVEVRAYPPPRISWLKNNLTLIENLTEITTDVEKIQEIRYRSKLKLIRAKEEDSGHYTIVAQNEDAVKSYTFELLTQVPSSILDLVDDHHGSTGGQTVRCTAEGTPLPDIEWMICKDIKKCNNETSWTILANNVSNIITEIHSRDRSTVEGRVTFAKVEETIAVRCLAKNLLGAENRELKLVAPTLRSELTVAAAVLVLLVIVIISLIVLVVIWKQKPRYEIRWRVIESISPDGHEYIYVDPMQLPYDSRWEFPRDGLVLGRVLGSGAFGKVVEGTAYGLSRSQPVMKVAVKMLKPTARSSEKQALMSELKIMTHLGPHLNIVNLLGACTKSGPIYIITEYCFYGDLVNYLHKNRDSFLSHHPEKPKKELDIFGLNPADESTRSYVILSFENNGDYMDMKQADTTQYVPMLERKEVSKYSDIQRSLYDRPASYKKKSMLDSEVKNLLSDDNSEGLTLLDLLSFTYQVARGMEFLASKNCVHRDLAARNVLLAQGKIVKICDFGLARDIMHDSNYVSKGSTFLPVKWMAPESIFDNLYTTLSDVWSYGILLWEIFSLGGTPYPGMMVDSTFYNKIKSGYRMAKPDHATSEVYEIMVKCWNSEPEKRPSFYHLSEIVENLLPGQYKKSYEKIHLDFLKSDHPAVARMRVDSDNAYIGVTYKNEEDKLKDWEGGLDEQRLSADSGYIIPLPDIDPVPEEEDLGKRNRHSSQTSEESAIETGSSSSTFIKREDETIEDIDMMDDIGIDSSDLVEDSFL

With `COc1cccc(OCCCOC(=O)Nc2ccc(Oc3ccnc4cc(OC)c(OC)cc34)cc2)c1` [Example 161, 3-(3-Methoxyphenoxy)propyl N-{4-[(6,7-dimethoxy-4-quinolyl)oxy]phenyl}carbamate], the IC50 (commonly the midpoint of a concentration-inhibition curve) is less than 10 nM at PDGF-Ra and 178 nM on c-kit.
Taken in the same sequence, the figures for `COc1cccc(OCCCOC(=O)Nc2ccc(Oc3ccnc4cc(OC)c(OC)cc34)c(C)c2C)c1` [Example 162, 3-(3-Methoxyphenoxy)propyl N-{4-[(6,7-dimethoxy-4-quinolyl)oxy]-2,3-dimethylphenyl}carbamate] were 16 nM and 162 nM.
With `COc1cccc(OCCCOC(=O)Nc2cc(C)c(Oc3ccnc4cc(OC)c(OC)cc34)cc2C)c1` [Example 163, 3-(3-Methoxyphenoxy)propyl N-{4-[(6,7-dimethoxy-4-quinolyl)oxy]-2,5-dimethylphenyl}carbamate], the IC50 at PDGF-Ra is less than 10 nM; at c-kit, 185 nM.
For `COc1cccc(OCCCOC(=O)Nc2ccc(Oc3ncnc4cc(OC)c(OC)cc34)cc2)c1` [Example 164, 3-(3-Methoxyphenoxy)propyl N-{4-[(6,7-dimethoxy-4-quinazolinyl)oxy]phenyl}carbamate], the IC50 was determined as 12 nM at PDGF-Ra and 50 nM at c-kit.
Consider `COc1cc2nccc(Oc3ccc(NC(=O)OCCSc4cc(C)ccc4C)cc3)c2cc1OC` [Example 165, 2-[(2,5-dimethylphenyl)sulfanyl]ethyl N-{4-[(6,7-dimethoxy-4-quinolyl)oxy]phenyl}carbamate], for which the IC50 at PDGF-Ra amounted to 49 nM; on c-kit, 149 nM.
Consider `COc1cc2nccc(Oc3ccc(NC(=O)OCCSc4cc(C)ccc4C)c(C)c3C)c2cc1OC` [Example 166, 2-[(2,5-Dimethylphenyl)sulfanyl]ethyl N-{4-[(6,7-dimethoxy-4-quinolyl)oxy]-2,3-dimethylphenyl}carbamate], for which the results for the IC50 at PDGF-Ra and at c-kit were 34 nM and 145 nM, respectively.
The like results for `COc1cc2nccc(Oc3cc(C)c(NC(=O)OCCSc4cc(C)ccc4C)cc3C)c2cc1OC` [Example 167, 2-[(2,5-Dimethylphenyl)sulfanyl]ethyl N-{4-[(6,7-Dimethoxy-4-quinolyl)oxy]-2,5-dimethylphenyl}carbamate] were, in that order, 45 nM and 370 nM.
As to `COc1cc2ncnc(Oc3ccc(NC(=O)OCCSc4cc(C)ccc4C)cc3)c2cc1OC` [Example 168, 2-[(2,5-Dimethylphenyl)sulfanyl]ethyl N-{4-[(6,7-dimethoxy-4-quinazolinyl)oxy]phenyl}carbamate], the IC50 on PDGF-Ra was 15 nM; at c-kit, 52 nM.
Take `COc1cc2nccc(Oc3ccc(NC(=O)OCCCSc4cc(C)ccc4C)cc3)c2cc1OC` [Example 169, 3-[(2,5-Dimethylphenyl)sulfanyl)propyl N-{4-[(6,7-dimethoxy-4-quinolyl)oxy]phenyl}carbamate]: the IC50 at PDGF-Ra was less than 10 nM; on c-kit, 31 nM.
The like results for `COc1cc2nccc(Oc3ccc(NC(=O)OCCCSc4cc(C)ccc4C)c(C)c3C)c2cc1OC` [Example 170, 3-[(2,5-Dimethylphenyl)sulfanyl]propyl N-{4-[(6,7-dimethoxy-4-quinolyl)oxy]-2,3-dimethylphenyl}carbamate] were, in that order, less than 10 nM and 34 nM.
The like results for `COc1cc2nccc(Oc3cc(C)c(NC(=O)OCCCSc4cc(C)ccc4C)cc3C)c2cc1OC` [Example 171, 3-[(2,5-Dimethylphenyl)sulfanyl]propyl N-{4-[(6,7-dimethoxy-4-quinolyl)oxy]-2,5-dimethylphenyl}carbamate] were, in that order, 22 nM and 83 nM.
The like results for `COc1cc2ncnc(Oc3ccc(NC(=O)OCCCSc4cc(C)ccc4C)cc3)c2cc1OC` [Example 172, 3-[(2,5-Dimethylphenyl)sulfanyl]-propyl N-{4-[(6,7-dimethoxy-4-quinazolinyl)oxy]phenyl}carbamate] were, in that order, 17 nM and 74 nM.
As to `COc1cc2nccc(Oc3ccc(NC(=O)OCCCSc4ccccn4)c(C)c3C)c2cc1OC` [Example 173, 3-(2-Pyridylsulfanyl)propyl N-{4-[(6,7-dimethoxy-4-quinolyl)oxy]-2,3-dimethylphenyl}-carbamate], the IC50 was less than 10 nM on PDGF-Ra and 37 nM on c-kit.
Consider `COc1cc2nccc(Oc3cc(C)c(NC(=O)OCCCSc4ccccn4)cc3C)c2cc1OC` [Example 174, 3-(2-Pyridylsulfanyl)propyl N-{4-[(6,7-dimethoxy-4-quinolyl)oxy]-2,5-dimethylphenyl}-carbamate], for which the half-maximal inhibitory concentration (IC50) is less than 10 nM at PDGF-Ra and 70 nM on c-kit.
Taken in the same sequence, the figures for `COc1cc2ncnc(Oc3ccc(NC(=O)OCCCSc4ccccn4)cc3)c2cc1OC` [Example 175, 3-(2-Pyridylsulfanyl)propyl N-{4-[(6,7-dimethoxy-4-quinazolinyl)oxy]phenyl}carbamate] were less than 10 nM and 45 nM.
With `COc1cc2nccc(Oc3ccc(NC(=O)Sc4ccc(Cl)cc4C)cc3)c2cc1OC` [Example 176, 4-Chloro-2-methylphenyl{4-[(6,7-dimethoxy-4-quinolyl)oxy]anilino}methanethioate], the figures for the IC50 on PDGF-Ra and at c-kit were 20 nM and less than 30 nM, respectively.
The like results for `COc1cc2nccc(Oc3ccc(NC(=O)Sc4ccc(Cl)cc4C)c(C)c3C)c2cc1OC` [Example 177, 4-Chloro-2-methylphenyl{4-[(6,7-dimethoxy-4-quinolyl)oxy]-2,3-dimethylanilino}methanethioate] were, in that order, 19 nM and less than 30 nM.
Regarding `COc1cc2ncnc(Oc3ccc(NC(=O)OC(C)c4cccc(OC(F)(F)F)c4)cc3)c2cc1OC` (stereo not shown) [Example 183, 1-[3-(Trifluoromethoxy)phenyl]ethyl N-{4-[(6,7-dimethoxy-4-quinazolinyl)oxy]phenyl}carbamate], the IC50 worked out at 35 nM at PDGF-Ra and 706 nM on c-kit.
In the case of `CCCC(OC(=O)Nc1ccc(Oc2ccnc3cc(OC)c(OC)cc23)cc1)c1ccccc1` (stereo not shown) [Example 184, 1-Phenylbutyl N{4-[(6,7-dimethoxy-4-quinolyl)oxy]phenyl}carbamate], the figures for the IC50 on PDGF-Ra and at c-kit were 38 nM and 369 nM, respectively.
For `CCCC(OC(=O)Nc1ccc(Oc2ncnc3cc(OC)c(OC)cc23)cc1)c1ccccc1` (stereo not shown) [Example 187, 1-Phenylbutyl N-{4-[(6,7-dimethoxy-4-quinazolinyl)oxy]phenyl}carbamate], the IC50 on PDGF-Ra is less than 10 nM; at c-kit, 561 nM.
Taken in the same sequence, the figures for `COc1cc2ncnc(Oc3ccc(NC(=O)OCCN(C)C)cc3)c2cc1OC` [Example 191, 2-(Dimethylamino)ethyl N-{4-[(6,7-dimethoxy-4-quinazolinyl)oxy]phenyl}carbamate] were 84 nM and 503 nM.
The like results for `COc1cc2nccc(Oc3ccc(NC(=O)OC(C)c4cccc(N(C)C)c4)cc3)c2cc1OC` (stereo not shown) [Example 199, 1-[3-(Dimethylamino)phenyl]ethyl N-{4-[(6,7-dimethoxy-4-quinolyl)oxy]phenyl}carbamate] were, in that order, 35 nM and 807 nM.
Take `COc1cc2nccc(Oc3ccc(NC(=O)OC(C)c4cccc(N(C)C)c4)c(C)c3C)c2cc1OC` (stereo not shown) [Example 200, 1-[3-(Dimethylamino)phenyl]ethyl N-{4-[(6,7-dimethoxy-4-quinolyl)oxy]-2,3-dimethylphenyl}-carbamate]: the IC50 on PDGF-Ra is 31 nM; at c-kit it was 329 nM.
